Test results taken from patent US20240408066A1, “Treatment Of Conditions Associated With Stress Granule Formation” (priority 2022, published 2024).

Legend:
[1] = molecular target: T1, recombinant mouse TIA1-ECFP+TIA1-EYFP (Mus musculus, UniProt P52912); test: In vitro FRET assay of TIA1 multimerization; format: binding; settings: TIA1-ECFP+TIA1-EYFP 10 ug/ml each; test compound 0-40 μM; FIG. 4
T1 construct: Full-length mouse TIA1 cDNA was generated from standard RT-PCR from total mouse brain RNA; 6xHis (N); made in house; host or cells: E. coli BL21 AI
T1 sequence (P52912 1-386) 1: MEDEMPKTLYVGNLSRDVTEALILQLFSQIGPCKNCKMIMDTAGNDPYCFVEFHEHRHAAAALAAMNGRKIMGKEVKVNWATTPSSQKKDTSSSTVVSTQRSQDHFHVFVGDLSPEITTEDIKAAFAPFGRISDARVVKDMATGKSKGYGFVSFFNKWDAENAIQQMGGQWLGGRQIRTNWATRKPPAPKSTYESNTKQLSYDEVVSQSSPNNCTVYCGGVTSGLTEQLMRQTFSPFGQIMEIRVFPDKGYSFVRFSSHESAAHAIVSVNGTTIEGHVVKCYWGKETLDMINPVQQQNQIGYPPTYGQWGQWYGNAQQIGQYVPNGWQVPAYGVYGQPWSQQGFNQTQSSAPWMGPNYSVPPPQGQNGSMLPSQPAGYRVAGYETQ
T1 sequence (P52912 1-386) 2: T1 sequence (P52912 1-386) 1
Description: The assay that takes advantage of a phenomenon involving the transfer of energy between two compatible fluorescent proteins. In particular, the fluorescent proteins CFP and YFP (cyan fluorescent protein and yellow fluorescent protein, respectively) emit fluorescent light of characteristic wavelengths when excited by laser radiation. CFP or YFP was tethered to a TIA1 protein and the hybrid proteins were mixed together. Subsequently, if TIA1 self-interacts (dimerizes), the tethered CFP and YFP proteins are brought into close proximity to one another. When this occurs, laser excitation of CFP leads to a release of energy that is absorbed by YFP, which can be detected in the assay. This assay can be employed in the presence of other agents, such as small molecule compounds, to determine whether their presence has any effect on dimerization of TIA1. This screen was employed to assay compounds in a chemical library in order to identify compounds that effect TIA1 binding and dimerization or multimerization.
One way to establish that test compounds bind recombinant TIA1 is to perform a Förster resonance energy transfer (FRET) experiment. Binding of test compound to monomeric protein is inferred by a change in FRET signal upon ligand-induced multimerization of suitably tagged (c.g.,-ECFP and -EYFP) fusion proteins. In other words, not only must the compound bind to TIA1-ECFP and TIA1-EYFP, it must also induce a change in multimeric state such that energy can be transferred between the ECFP and EYFP tags. […]
Plasmids encoding mouse TIA1-ECFP and TIA1-EYFP were generated by standard PCR-based cloning techniques. […] Samples are read in real-time with a fluorescence microplate reader. To measure donor FRET, samples are excited at 430+30 nm, and […] is measured at 480+20 nm. Compounds that drive multimerization of the fusion proteins cause proximal localization of the ECFP and EYFP moieties, leading to a reduction in ECFP fluorescence with ECFP excitation due to energy transfer to EYFP. […]

[2] = molecular target: T2, recombinant mouse TIA1 with human recombinant tau (0N4R isoform) (Mus musculus, UniProt P52912); test: TIA1-induced oligomerization of tau protein in vitro (oTau immunoblotting); format: biochemical; settings: fixed ratio of TIA1:tau; as a function of drug concentration and time (0.5-2 h); FIG. 5 right panels
T2 sequence (P52912 1-386): T1 sequence (P52912 1-386) 1
Method: Oligomeric tau is the most pathological configuration of the protein.
Purified full-length recombinant mouse TIA1 protein was generated from standard cloning methods followed by standard protocols for bacterial expression and purification. Recombinant TIA1 was incubated with commercially available human recombinant tau (ON4R isoform) obtained from R&D Systems at the indicated molar ratios/concentrations. After indicated incubation times, reactions were spotted onto nitrocellulose membrane followed by immunoblotting with primary antibodies that recognize oligomeric tau (oTau) or TIA1. Fluorescently labeled secondary antibody staining against indicated primary antibodies was followed by quantitative image analysis using a Li-COR Odyssey system. Experiment A evaluates the impact of TIA1:tau molar ratio on tau oligomerization and whether OTX0049 at a single test concentration interferes with TIA1-dependent tau oligomerization (FIG. 5, left panels). The experiment represented in the right panels measure the dose-response of OTX0049 and OTX1017 (Formula I in claims) inhibition of TIA1-dependent tau oligomerization at a fixed ratio of recombinant TIA1:tau (FIG. 5, right panels).

rTg4510 transgenic mice = test: Cellular pathology in rTg4510 mouse model (GFAP and NeuN immunohistochemistry); format: in vivo; settings: 5 mg/kg i.p. once per week for 7 weeks beginning at 77 d; FIG. 7
Method: rTg4510 transgenic mice are a well-established model of tauopathy based on expression of a human tau mutant (P301L). […] Given that these cellular pathological events are driven by tau, TIA1 antagonists compounds should limit tau-dependent pathology.
rTg4510 transgenic mice were treated with DMSO vehicle or OTX1017 (Formula I in claims 5 mg/kg i.p.) once per week for 7 weeks beginning at 77 d. Hippocampal slices were then prepared for conventional immunohistochemistry with GFAP (neuroinflammation marker) and NeuN (neuronal marker), followed by quantitation using NIH ImageJ. GFAP signal was quantitated in cortex (ctx) (white arrows). NeuN staining was used to calculate average thickness of the CA1 pyramidal cell layer for each slice.

PS19 transgenic mice = test: Tau oligomerization in vivo in PS19 mice (hippocampal dot blots, oligomeric tau-specific antibody); set-up: species or system mouse; settings: 10 mg/kg i.p. once per week for 6 weeks; FIG. 10
Method: FIG. 10 illustrates the inhibition of tau oligomerization in vivo by OTX1017. Mice were treated with 10 mg/kg OTX1017 i.p., once per week, for 6 weeks, hippocampal extracts were prepared, and dot blots were performed with an oligomeric tau-specific antibody.

Q: For `CCOC(=O)c1ccc(-n2sc3ccccc3c2=O)cc1` [Formula III], which “multimerization of TIA1 (FRET signal)” value [1] is on record?
A: demonstrate FRET signals indicative of TIA1 multimerization

Q: `Cc1ccc(C)c(-n2[se]c3cc(F)ccc3c2=O)c1` [OTX1017] was tested. Which “TIA1-dependent tau oligomerization, dose-response” value [2] did it give?
A: drug-dependent reduction of TIA1-dependent tau oligomerization

Q: And the “multimerization of TIA1 (FRET signal)” value [1]?
A: Induce Multimerization of Recombinant Mouse TIA1

Q: And the “GFAP staining in the cortex (neuroinflammation)” value (rTg4510 transgenic mice)?
A: ameliorated

Q: And the “thickness of the CA1 pyramidal layer neurons (NeuN staining)” value (rTg4510 transgenic mice)?
A: ameliorated by drug treatment

Q: What about the “oligomeric tau in the hippocampus” value (PS19 transgenic mice) of the same compound?
A: significantly reduces the presence of oligomeric tau in the hippocampus

Q: For `Cc1ccc(C)c(-n2[se]c3cncnc3c2=O)c1` [OTX1018], which “multimerization of TIA1 (FRET signal)” value [1] is on record?
A: Induce Multimerization of Recombinant Mouse TIA1
